Experimental findings from PubChem BioAssay (NCI) are described below.

Some test systems named below: HCT-15 colon; EKVX NSCLC; SNB-19 CNS; NCI-H226 lung; SF-539 CNS; SN12C renal; HOP-62 NSCLC; NCI-H522 lung.
Holding throughout (assay): growth of human tumour cells (NCI), 48 h

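Method: 48-hour compound exposure of cells in 96-well plates, five concentrations, linear interpolation of endpoints. GI50 is the concentration that inhibits growth by half. The concentration for full growth arrest is given as TGI.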 Bounds are passed on as bounds.

Consider `COC1OC2COC(c3ccccc3)OC2C(OC(=S)c2ccccc2)C1O` (centres undefined), for which the TGI in the experiment on HCT-15 colon is over 100 µM; in the experiment on EKVX NSCLC it was 5.82 µM; in the experiment on SNB-19 CNS it was over 100 µM; in the experiment on NCI-H226 lung, over 100 µM; with SF-539 CNS, 27.7 µM; in the experiment on SN12C renal, over 100 µM. The compound also displayed a TGI with HOP-62 NSCLC of 41.1 µM.
For H-KIFKKFKTIIKKVWRIFGRF-NH2, in the experiment with NCI-H522 lung, the GI50 was 2.34 µM and the TGI was over 100 µM.
